Patent publication US20200352913A1, “NEW METHOD FOR TREATING DENGUE VIRUS INFECTION” (INSERM (INSTITUT NATIONAL DE LA SANTÉ ET DE LA RECHERCHE …, priority 2017, published 2020)
“Also recorded” adds a separate entry of the source.

Legend:
[1] = tested on: Cell proliferation; experiment: Cell proliferation over time (FIG. 3); format: cell-based; details: NGI-1 2 μM, measured over time, RLU
Procedure: FIG. 3. Cell proliferation is not affected by NGI-1. Cell proliferation is measured over time after incubation with NGI-1 (2 μM), MPA (10 μM) or respective mock control. Data shown are means±S.D. of one representative experiment of three replicates. RLU, relative light units.

[2] = tested on: HSV; experiment: Infection of HeLa cells by HSV, flow cytometry (FIG. 2D); format: cell-based; details: MOI 0.3, 24h post infection
Procedure: (§1) FIG. 2. […] (A) HeLa cells were pre-incubated for 24h with increased concentration of NGI-1, or for 3h with MPA prior infection with DENV2_16681 (MOI 5). MPA, Mycophenolic acid. (B) Replication kinetics of DENV2 in HeLa replicon cells challenged with NGI-1 (2 μM) or MPA (10 μM) along the experiment duration. (C) Supernatants from HEK-293T cells transfected with FLAG-NS plasmids, were subjected to ELISA to quantify secreted NS1. (D) HeLa cells were incubated for 24 hours with NGI-1 and challenged in continuous presence of the drug with DENV1 (MOI 1), DENV2_16681 (MOI 5), DENV2_JAM (MOI 5), DENV3_THAI (MOI 5), WNV (MOI 1), ZIKV (MOI 1), CHIKV (MOI 5) or HSV (MOI 0.3). (E) Similarly treated primary skin fibroblast and monocyte derived dendritic cells (MDDC) were challenged with DENV2_16681 (MOI 5) and ZIKV_HD78788 (MOI 2). (D and E) The levels of infected cells were assessed 24h post infection by flow cytometry using respective anti-viral antibodies. (A-E) Data shown are means±SD of two independent experiments. Significance was calculated using a one-way ANOVA statistical test with a Dunnett's multiple (A, B and C) or Tukey comparison test (D and E). (n.s., not significant; **p<0.001; […]).

[3] = tested on: ZIKV NS1 glycosylation; experiment: ZIKV NS1 glycosylation under NGI-1 (immunoblot, data not shown); format: cell-based; details: dose dependent
From the text: (§2) The OST complex is known to be required for flavivirus infection through mechanisms that are poorly understood (Marceau et al., 2016; Savidis et al., 2016; Zhang et al., 2016). In mammalians, there are two OST complexes, each composed of a catalytic subunit isoform (STT3A or STT3B) associated with a set of shared subunits (RPN1, RPN2, DDOST, DAD1 and OST4) (Cherepanova et al., 2016). Their main function is to transfer a preassembled oligosaccharide to selected asparagine residues within the consensus sequence asparagine-X-serine/threonine (Cherepanova et al., 2016). […] To test whether the OST complex contributes to NS1 or NS4B N-glycosylation, we transfected HEK-293T cells with a siRNA pool targeting RPN1, DDOST, STT3A or STT3B. […] We then examined the effect of NGI-1, a recently discovered N-linked glycosylation inhibitor that directly and reversibly interacts with the OST catalytic subunits (Lopez-Sambrooks et al., 2016). […] To pinpoint the effect of hypoglycosylation on NS1 stability, we transfected HEK-293T cells with plasmids encoding FLAG-NS1 WT or mutants lacking the first (N130Q), the second (N207Q), or both N-linked glycosylation sites (N130Q/N207Q) (data not shown).

[4] = data not shown
From the text: as §2

[5] = tested on: DENV NS1 glycosylation; experiment: DENV NS1 glycosylation under NGI-1 (immunoblot, data not shown); format: cell-based; details: dose dependent
From the text: as §2

[6] = tested on: DENV1, DENV2_16681, DENV2_JAM, DENV3_THAI; experiment: Infection of HeLa cells by DENV serotypes, flow cytometry (FIG. 2D); format: cell-based, Dengue virus; details: 24 h pre-incubation, continuous drug, 24h post infection
Procedure: as §1

[7] = tested on: secreted NS1; experiment: ELISA of secreted NS1 in supernatants (FIG. 2C); format: cell-based, DENV
Procedure: as §1
(§3) The OST complex is known to be required for flavivirus infection through mechanisms that are poorly understood (Marceau et al., 2016; Savidis et al., 2016; Zhang et al., 2016). […]

[8] = tested on: DENV2 replicon (vRNA amplification); experiment: Replication kinetics of DENV2 in HeLa replicon cells (FIG. 2B); format: cell-based, Dengue virus; details: NGI-1 2 μM
Procedure: as §1, §3

[9] = tested on: DENV2_16681; experiment: DENV infection of monocyte-derived dendritic cells (FIG. 2E); format: cell-based, Dengue virus; details: DENV2_16681 MOI 5, 24h post infection
Procedure: as §1

[10] = tested on: DENV2_16681; experiment: DENV infection of HeLa cells pre-incubated with drug (FIG. 2A); format: cell-based, Dengue virus
Procedure: as §1, §3

[11] = tested on: DENV2_16681; experiment: DENV infection of human primary skin fibroblasts (FIG. 2E); format: cell-based, Dengue virus; details: DENV2_16681 MOI 5, 24h post infection
Procedure: as §1

[12] = tested on: WNV; experiment: Infection of HeLa cells by WNV, flow cytometry (FIG. 2D); format: cell-based, West Nile virus; details: MOI 1, 24h post infection
Procedure: as §1

[13] = tested on: DENV2_16681; details: Diamond et al., 2002; targets de novo purine biosynthesis pathway; cited from earlier work

Row | SMILES | cell proliferation / antiproliferative effects [1] | infection by HSV [2] | ZIKV NS1 glycosylation [3] | cytotoxicity [4] | DENV NS1 glycosylation [5] | infection by the four DENV serotypes [6] | NS1 secretion [7] | vRNA amplification [8] | DENV infection of monocyte-derived dendritic cells [9] | antiviral activity compared with MPA ([10]; FIGS. 2A and B, NGI-1 2 μM, MPA 10 μM in replicon cells) | DENV infection ([10]; HeLa cells, 24h pre-incubation with increased concentration of NGI-1, DENV2_16681 MOI 5, dose dependent) | DENV infection of human primary skin fibroblasts [11] | infection by WNV [12] | DENV replication inhibition (literature) [13]
1 | Cc1cnc(NC(=O)c2cc(S(=O)(=O)N(C)C)ccc2N2CCCC2)s1 [NGI-1] | not affected; also recorded: without any significant cytotoxicity (data not shown) or antiproliferative effects | not | strongly impaired | without any significant cytotoxicity | strongly impaired | blocked | impaired | blocked | significantly reduced | comparable to mycophenolic acid | significantly inhibited | significantly reduced | blocked | –
2 | COc1c(C)c2c(c(O)c1C/C=C(\C)CCC(=O)O)C(=O)OC2 [MPA, mycophenolic acid] | – | – | – | – | – | – | – | – | – | – | – | – | – | a well-known DENV replication inhibitor
